Test results reported in US12599136B2, “Substituted isophthalic acid diamides and their use as herbicides” (Bayer Aktiengesellschaft, priority 2020, dated 2026).

How the values were obtained:
Type in all cases: in vivo
[1] = test system: Veronica persica; assay: Pre-emergence herbicidal action against VERPE; settings: 80 g/ha
Procedure, shortened: (§1)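 Visual rating at 3 weeks vs untreated pots; 0–100% scale, 100% = plants died. Treatment: aqueous WP/EC spray onto covering soil, 600–800 l/ha, 0.2% wetter, seeds in sandy loam.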

[2] = test system: Lolium rigidum; assay: Pre-emergence herbicidal action against LOLRI; settings: 80 g/ha
Procedure, shortened: as §1

[3] = test system: Setaria viridis; assay: Pre-emergence herbicidal action against SETVI; settings: 80 g/ha
Procedure, shortened: as §1

[4] = test system: Viola tricolor; assay: Post-emergence herbicidal action against VIOTR
Procedure, shortened: (§2)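 Greenhouse pot plants in sandy loam were sprayed at the one-leaf stage, 2 to 3 weeks after sowing, with WP or EC formulations as aqueous suspension or emulsion (600 to 800 l/ha water, 0.2% wetting agent). About 3 weeks later, damage was scored visually against untreated controls as % action (100% = dead, 0% = like control).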

[5] = test system: Veronica persica; assay: Post-emergence herbicidal action against VERPE; settings: 20 g/ha, visual assessment about 3 weeks after treatment
Procedure, shortened: as §2

[6] = test system: Abutilon theophrasti; assay: Post-emergence herbicidal action against ABUTH
Procedure, shortened: as §2

[7] = test system: Pharbitis purpurea; assay: Post-emergence herbicidal action against PHBPU; settings: visual assessment about 3 weeks after treatment
Procedure, shortened: as §2

[8] = test system: Echinochloa crus-galli; assay: Pre-emergence herbicidal action against ECHCG; settings: 80 g/ha; visual score after 3 weeks vs untreated controls
Procedure, shortened: as §1

[9] = test system: Avena fatua; assay: Pre-emergence herbicidal action against AVEFA; settings: 80 g/ha; visual score after 3 weeks vs untreated controls
Procedure, shortened: as §1

[10] = test system: Matricaria inodora; assay: Post-emergence herbicidal action against MATIN; settings: visual assessment about 3 weeks after treatment
Procedure, shortened: as §2

[11] = test system: Polygonum convolvulus; assay: Pre-emergence herbicidal action against POLCO; settings: 80 g/ha
Procedure, shortened: as §1

[12] = test system: Alopecurus myosuroides; assay: Pre-emergence herbicidal action against ALOMY; settings: 80 g/ha; visual score after 3 weeks vs untreated controls
Procedure, shortened: as §1

[13] = test system: Avena fatua; assay: Post-emergence herbicidal action against AVEFA; settings: 20 g/ha, visual assessment about 3 weeks after treatment
Procedure, shortened: as §2

[14] = test system: Setaria viridis; assay: Post-emergence herbicidal action against SETVI; settings: visual assessment about 3 weeks after treatment
Procedure, shortened: as §2

[15] = test system: Pharbitis purpurea; assay: Pre-emergence herbicidal action against PHBPU; settings: 80 g/ha; visual score after 3 weeks vs untreated controls
Text: Seeds of monocotyledonous and dicotyledonous weed plants and crop plants are laid out in sandy loam soil in wood-fiber pots and covered with soil. The compounds of the invention, formulated in the form of wettable powders (WP) or as emulsion concentrates (EC), are then applied to the surface of the covering soil in the form of an aqueous suspension or emulsion at a water application rate equivalent to 600 to 800 l/ha, with addition of 0.2% wetting agent. After the treatment, the pots are placed in a greenhouse and kept under good growth conditions for the trial plants. The damage to the test plants is scored visually after a test period of 3 weeks by comparison with untreated controls (herbicidal activity in percent (%): 100% activity=the plants have died, 0% activity=like control plants). […] The tables below illustrate, in an illustrative manner, the post-emergence herbicidal action of the compounds of the invention, the herbicidal activity being stated in percent.

[16] = test system: Viola tricolor; assay: Pre-emergence herbicidal action against VIOTR
Procedure, shortened: as §1

[17] = test system: Amaranthus retroflexus; assay: Pre-emergence herbicidal action against AMARE; settings: visual score after 3 weeks vs untreated controls
Procedure, shortened: as §1

[18] = test system: Abutilon theophrasti; assay: Pre-emergence herbicidal action against ABUTH; settings: visual score after 3 weeks vs untreated controls
Procedure, shortened: as §1

[19] = test system: Amaranthus retroflexus; assay: Post-emergence herbicidal action against AMARE; settings: visual assessment about 3 weeks after treatment
Procedure, shortened: as §2

[20] = test system: Digitaria sanguinalis; assay: Post-emergence herbicidal action against DIGSA
Procedure, shortened: as §2

[21] = test system: Alopecurus myosuroides; assay: Post-emergence herbicidal action against ALOMY
Procedure, shortened: as §2

[22] = test system: Matricaria inodora; assay: Pre-emergence herbicidal action against MATIN; settings: visual score after 3 weeks vs untreated controls
Procedure, shortened: as §1

[23] = test system: Echinochloa crus-galli; assay: Post-emergence herbicidal action against ECHCG; settings: 20 g/ha, visual assessment about 3 weeks after treatment
Procedure, shortened: as §2

| Compound | Pre-emergence action against LOLRI [2] [%] | Pre-emergence action against SETVI [3] [%] | Post-emergence action against VIOTR in % ([4]; 20 g/ha) [%] | Post-emergence action against VERPE in % [5] [%] | Post-emergence action against ABUTH ([6]; 5 g/ha) [%] | Post-emergence action against ABUTH ([6]; 20 g/ha) [%] | Pre-emergence action against ECHCG [8] [%] | Pre-emergence action against AVEFA [9] [%] | Post-emergence action against MATIN in % ([10]; 20 g/ha) [%] | Pre-emergence action against ALOMY [12] [%] | Post-emergence action against SETVI in % ([14]; 20 g/ha) [%] | Pre-emergence action against PHBPU [15] [%] | Pre-emergence action against VIOTR ([16]; 80 g/ha) [%] | Pre-emergence action against AMARE ([17]; 20 g/ha) [%] | Pre-emergence action against AMARE ([17]; 80 g/ha) [%] | Pre-emergence action against ABUTH ([18]; 20 g/ha) [%] | Pre-emergence action against ABUTH ([18]; 80 g/ha) [%] | Post-emergence action against AMARE in % ([19]; 5 g/ha) [%] | Post-emergence action against AMARE in % ([19]; 20 g/ha) [%] | Post-emergence action against ALOMY ([21]; 5 g/ha) [%] | other results |
| --- | --- | --- | --- | --- | --- | --- | --- | --- | --- | --- | --- | --- | --- | --- | --- | --- | --- | --- | --- | --- | --- |
| CCN(CC)C(=O)c1c(C(F)F)ccc(C(=O)Nc2nnnn2C)c1Cl [Example 1-166] | 80 | 100 | 80 | 80 | 80 | 90 | 100 | 90 | 90 | 90 | 100 | 90 | 100 | 100 | 100 | 100 | 100 | 100 | 100 | 80 | Pre-emergence action against VERPE [1]: 100%; Post-emergence action against PHBPU in % ([7]; 5 g/ha): 90%; Post-emergence action against PHBPU in % ([7]; 20 g/ha): 90%; Post-emergence action against MATIN in % ([10]; 5 g/ha): 80%; Pre-emergence action against POLCO [11]: 80%; Post-emergence action against AVEFA in % [13]: 80%; Post-emergence action against SETVI in % ([14]; 5 g/ha): 80%; Post-emergence action against DIGSA in % ([20]; 5 g/ha): 90%; Post-emergence action against DIGSA in % ([20]; 20 g/ha): 90%; Post-emergence action against ALOMY ([21]; 20 g/ha): 80%; Pre-emergence action against MATIN ([22]; 20 g/ha): 90%; Pre-emergence action against MATIN ([22]; 80 g/ha): 90% |
| CCN(C(=O)c1c(C(F)F)ccc(C(=O)Nc2nnnn2C)c1Cl)C1CC1 [Example 1-167] | 90 | 100 | 90 | 90 | 90 | 90 | 90 | 90 | 80 | 100 | 100 | 80 | 100 | 100 | 100 | 100 | 100 | 100 | 100 | 90 | Post-emergence action against VIOTR in % ([4]; 5 g/ha): 80%; Post-emergence action against ECHCG in % [23]: 80%; Pre-emergence action against VIOTR ([16]; 20 g/ha): 90%; Post-emergence action against ALOMY ([21]; 20 g/ha): 90%; Pre-emergence action against MATIN ([22]; 20 g/ha): 80%; Pre-emergence action against MATIN ([22]; 80 g/ha): 100% |
